Patent US4565810A, “Derivatives of biliary acids, process for the production thereof and pharmaceutical compositions containing the same” (Lehner A.G., priority 1983, dated 1986)
Where two headings read alike, the source gives them in different places.

Assays:
physchem [1] = experiment: physchem
From the text: (§1) The [α]D, pKa, the retention factor and the critical micellar concentrations (CMC), important because related to the capacity to form micelles in the bile and function of the hydrophilic/lipophilic balance, have been determined on the A, B, C, D isomers of 22,23-methanate-ursodeoxycholic acid. The CMCs have been measured by the method of the solubilization of insoluble dyes such as Azulene and Orange OT (Roda et al., J. Biol. Chem., in press).
*Determined by potentiometric titration.

[2] = assay type: physicochemical
From the text: as §1

physchem [3] = conditions: c18 hplc, methanol/water; for K' (retention factor): pH 5.7
From the text: as §1
**K' = Retention factor. It has been calculated from the retention times
on HPLC using as stationary phase a C18 column and as mobile phase a
mixture of methanol/H2 O 130/70; pH 5.7.

[4] = Hepatic uptake in isolated rat livers (method of Mortimore); assay type: in vitro ADME; conditions: isolated perfused liver, mean ± SD of five determinations
bile lipid secretion = experiment: Bile flow and bile lipid secretion in anaesthetized rats; assay type: in vivo, Sprague-Dawley rats; conditions: 50 mg i.v., bile collected for 5 h; for Bile flow: controls 0.55 ± 0.12, *** p < 0.01 vs. controls; for Cholesterol secretion: controls 1.66 ± 0.12, *** p < 0.01 vs. controls; for Phospholipid secretion: controls 6.92 ± 0.44, *** p < 0.01 vs. controls (CUDCA); for BA (bile acids) secretion: controls 61 ± 8
From the text: *The control values were obtained on five rats studied under similar
conditions to the BA treated rats. Each value represents the mean plus or
minus the SD of five determinations.

[5] = biological target: human serum albumina (HSP) (Homo sapiens, UniProt P02768); experiment: Interaction with human serum albumin (albumin affinity constant)
Chain of human serum albumina (HSP) (P02768 25-609): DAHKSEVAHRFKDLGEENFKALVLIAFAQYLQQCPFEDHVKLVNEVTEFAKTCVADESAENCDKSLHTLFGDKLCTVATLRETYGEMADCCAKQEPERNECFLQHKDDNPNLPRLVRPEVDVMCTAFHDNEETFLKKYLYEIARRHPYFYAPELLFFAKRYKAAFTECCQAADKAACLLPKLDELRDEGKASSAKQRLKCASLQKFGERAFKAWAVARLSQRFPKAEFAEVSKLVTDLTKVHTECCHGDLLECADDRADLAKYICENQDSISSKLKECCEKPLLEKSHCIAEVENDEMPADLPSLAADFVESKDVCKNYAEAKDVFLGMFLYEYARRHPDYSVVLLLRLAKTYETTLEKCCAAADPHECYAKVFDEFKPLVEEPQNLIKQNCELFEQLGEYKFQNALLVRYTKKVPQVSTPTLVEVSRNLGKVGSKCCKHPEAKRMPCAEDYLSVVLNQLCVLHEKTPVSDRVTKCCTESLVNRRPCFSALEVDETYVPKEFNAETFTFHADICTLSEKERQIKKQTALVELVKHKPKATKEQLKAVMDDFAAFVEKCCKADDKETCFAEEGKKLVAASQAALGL

Structure (SMILES)	pKa (physchem [1]; pKa)	CMC (H2O) [2] [mM]	CMC (Na^+ 0.15 M) [2] [mM]	K' (retention factor) (physchem [3])	pKa (physchem [1])	hepatic extraction ratio [4]	Bile flow (bile lipid secretion) [mL/h]	Cholesterol secretion (bile lipid secretion) [µmol/kg/h]	Phospholipid secretion (bile lipid secretion)	BA (bile acids) secretion (bile lipid secretion) [µmol/kg/h]	Kd [5] [µM]	chromatographic logD (physchem [3]; pH 5.7, K' (retention factor))
C[C@H](C1CC1C(=O)O)[C@H]1CC[C@H]2[C@@H]3[C@@H](O)C[C@@H]4C[C@H](O)CC[C@]4(C)[C@H]3CC[C@]12C (single isomer, unassigned) [Isom. A, 22,23-methanate-ursodeoxycholic acid]	5.03	25	16	0.21	–	–	–	–	–	–	–	–
C[C@H](C1CC1C(=O)O)[C@H]1CC[C@H]2[C@@H]3[C@@H](O)C[C@@H]4C[C@H](O)CC[C@]4(C)[C@H]3CC[C@]12C (single isomer, unassigned) [Isom. B, 22,23-methanate-ursodeoxycholic acid]	–	20	12	0.80	5.06	–	–	–	–	–	–	–
C[C@H](C1CC1C(=O)O)[C@H]1CC[C@H]2[C@@H]3[C@@H](O)C[C@@H]4C[C@H](O)CC[C@]4(C)[C@H]3CC[C@]12C (single isomer, unassigned) [Isom. C, 22,23-methanate-ursodeoxycholic acid]	–	14	8	1.30	5.02	–	–	–	–	–	–	–
C[C@H](C1CC1C(=O)O)[C@H]1CC[C@H]2[C@@H]3[C@@H](O)C[C@@H]4C[C@H](O)CC[C@]4(C)[C@H]3CC[C@]12C (single isomer, unassigned) [Isom. D, 22,23-methanate-ursodeoxycholic acid]	–	10	6	2.05	5.04	–	–	–	–	–	–	–
C[C@H](C1CC1C(=O)O)[C@H]1CC[C@H]2[C@@H]3[C@@H](O)C[C@@H]4C[C@H](O)CC[C@]4(C)[C@H]3CC[C@]12C (stereo partly drawn) [CUDCA, 3α, 7β-dihydroxy-22,23-methylene-5β-cholan-24-oic acid]	–	–	–	–	–	0.46 ± 0.01	1.68 ± 0.20	2.70 ± 0.14	9.50 ± 0.44 ^.parallel.mol kg^-1 h^-	97 ± 9	14.7	–
C[C@H](CCC(=O)O)[C@H]1CC[C@H]2[C@@H]3[C@@H](O)C[C@H]4C[C@H](O)CC[C@]4(C)[C@H]3CC[C@]12C [UDCA, 3α, 7β-dihydroxy-5α-cholan-24-oic acid, reference compound]	5.06	19	11	–	–	–	1.08 ± 0.15	2.12 ± 0.09	6.47 ± 0.54 ^.parallel.mol kg^-1 h^-	98 ± 7	–	-0.0223
